Results reported in ChEMBL document CHEMBL3763041, “Design and synthesis of new imidazo[1,2-a]pyridine and imidazo[1,2-a]pyrazine derivatives with antiproliferative activity against melanoma cells” (Eur J Med Chem, 2016).

Assay: Antiproliferative activity against human A375P cells expressing BRAF V600E mutant after 72 hrs by CellTiter-Glo assay
Format: functional, cell-based

## Nc1nccn2c(-c3cccc(NC(=O)c4ccc(F)cc4F)c3)cnc12
  IC50: 7260 nM

## O=C(Nc1cccc(-c2cnc3c(NC(=O)c4ccc(F)c(C(F)(F)F)c4)nccn23)c1)Nc1ccc(F)cc1F
  IC50: 410 nM

## COc1ccc(C(=O)Nc2cccc(-c3cnc4c(NC(=O)c5ccccc5)cccn34)c2)cc1OC
  IC50: 9470 nM

## O=C(Nc1cccc(-c2cnc3c(NC(=O)c4cccc(Cl)c4Cl)nccn23)c1)c1ccc(F)c(Cl)c1
  IC50: 23300 nM

## O=C(Nc1cccc(-c2cnc3c(NC(=O)c4ccc(Cl)c(C(F)(F)F)c4)nccn23)c1)c1ccc(F)c(Cl)c1
  IC50: 1080 nM

## O=C(Nc1cccc(-c2cnc3c(NC(=O)c4cccc(Cl)c4Cl)nccn23)c1)Nc1ccc(F)cc1F
  IC50: 170 nM

## O=C(Nc1cccc(-c2cnc3c(NC(=O)c4ccc(Br)cc4)nccn23)c1)c1ccc(Cl)c(C(F)(F)F)c1
  IC50: 1800 nM

## Nc1nccn2c(-c3cccc(NC(=O)c4cc(Cl)cc(Cl)c4)c3)cnc12
  IC50: 2940 nM

## O=C(Nc1cccc(-c2cnc3c(NC(=O)c4ccc(F)c(Cl)c4)nccn23)c1)Nc1ccc(Cl)c(C(F)(F)F)c1
  IC50: 1280 nM

## Nc1nccn2c(-c3cccc(NC(=O)Nc4cccc(C(F)(F)F)c4)c3)cnc12
  IC50: 5230 nM

## COc1ccc(NC(=O)Nc2cccc(-c3cnc4c(N)nccn34)c2)cc1
  IC50: 3000 nM

## O=C(Nc1cccc(-c2cnc3c(NC(=O)c4ccc(Br)cc4)nccn23)c1)c1ccc(F)c(Cl)c1
  IC50: 490 nM

## Nc1nccn2c(-c3cccc(NC(=O)c4cccc(C(F)(F)F)c4)c3)cnc12
  IC50: 2080 nM

## O=C(Nc1cccc(-c2cnc3c(NC(=O)c4cc(F)cc(F)c4)nccn23)c1)c1ccc(Cl)c(C(F)(F)F)c1
  IC50: 1620 nM

## O=C(Nc1cccc(-c2cnc3c(NC(=O)c4cccc(C(F)(F)F)c4)nccn23)c1)c1ccc(Cl)c(C(F)(F)F)c1
  IC50: 12700 nM

## O=C(Nc1cccc(-c2cnc3c(NC(=O)c4ccc(Cl)c(C(F)(F)F)c4)nccn23)c1)c1ccc(Cl)c(C(F)(F)F)c1
  IC50: 2460 nM

## O=C(Nc1cccc(-c2cnc3c(NC(=O)c4ccccc4)cccn23)c1)c1cc(Cl)c(F)c(Cl)c1
  IC50: 7340 nM

## Cc1ccc(C)c(C(=O)Nc2cccc(-c3cnc4c(N)nccn34)c2)c1
  IC50: 2730 nM

## O=C(Nc1cccc(-c2cnc3c(NC(=O)c4ccc(OC(F)(F)F)cc4)nccn23)c1)c1ccc(Cl)c(C(F)(F)F)c1
  IC50: 1310 nM

## O=C(Nc1cccc(-c2cnc3c(NC(=O)c4ccc(F)c(C(F)(F)F)c4)nccn23)c1)c1ccc(F)c(Cl)c1
  IC50: 1140 nM

## CCCS(=O)(=O)Nc1ccc(F)c(C(=O)c2c[nH]c3ncc(-c4ccc(Cl)cc4)cc23)c1F [VEMURAFENIB]
  IC50: 370 nM

## O=C(Nc1cccc(-c2cnc3c(NC(=O)c4ccc(Cl)c(C(F)(F)F)c4)nccn23)c1)Nc1ccc(F)cc1F
  IC50: 800 nM

## O=C(Nc1cccc(-c2cnc3c(NC(=O)c4cc(Cl)cc(Cl)c4)nccn23)c1)c1ccc(F)c(Cl)c1
  IC50: 1150 nM

## Cc1ccc(C)c(C(=O)Nc2cccc(-c3cnc4c(NC(=O)c5ccccc5)cccn34)c2)c1
  IC50: > 30000 nM

## Cc1ccc(C(=O)Nc2cccc(-c3cnc4c(NC(=O)c5ccccc5)cccn34)c2)cc1Cl
  IC50: 7070 nM

## O=C(Nc1cccc(-c2cnc3c(NC(=O)c4cc(F)cc(F)c4)nccn23)c1)Nc1ccc(Cl)c(C(F)(F)F)c1
  IC50: 1940 nM

## O=C(Nc1cccc(-c2cnc3c(NC(=O)c4ccccc4)cccn23)c1)Nc1cccc(C(F)(F)F)c1
  IC50: 4290 nM

## Nc1nccn2c(-c3cccc(NC(=O)Nc4ccc(F)cc4F)c3)cnc12
  IC50: 920 nM

## COc1ccc(C(=O)Nc2cccc(-c3cnc4c(N)nccn34)c2)cc1OC
  IC50: 3840 nM

## O=C(Nc1cccc(-c2cnc3c(NC(=O)c4ccccc4)nccn23)c1)Nc1ccc(F)cc1F
  IC50: 1990 nM

## Nc1nccn2c(-c3cccc(NC(=O)c4ccc(Cl)c(Cl)c4)c3)cnc12
  IC50: 1210 nM

## O=C(Nc1cccc(-c2cnc3c(NC(=O)c4cc(C(F)(F)F)cc(C(F)(F)F)c4)nccn23)c1)c1ccc(Cl)c(C(F)(F)F)c1
  IC50: 550 nM

## O=C(Nc1cccc(-c2cnc3c(NC(=O)c4ccccc4)cccn23)c1)c1cc(F)cc(F)c1
  IC50: 7940 nM

## Nc1nccn2c(-c3cccc(NC(=O)Nc4cccc(Cl)c4)c3)cnc12
  IC50: 5010 nM

## O=C(Nc1cccn2c(-c3cccc(NC(=O)c4cccc(Cl)c4Cl)c3)cnc12)c1ccccc1
  IC50: > 30000 nM

## O=C(Nc1cccc(-c2cnc3c(NC(=O)c4ccccc4)cccn23)c1)c1cccc(OC(F)(F)F)c1
  IC50: > 30000 nM

## O=C(Nc1cccc(-c2cnc3c(NC(=O)c4cccc(C(F)(F)F)c4)nccn23)c1)Nc1ccc(Cl)c(C(F)(F)F)c1
  IC50: 560 nM

## Cc1ccc(NC(=O)Nc2cccc(-c3cnc4c(N)nccn34)c2)cc1
  IC50: 2700 nM

## O=C(Nc1ccc(C(F)(F)F)cc1)Nc1cccc(-c2cnc3c(NC(=O)c4ccccc4)cccn23)c1
  IC50: 3010 nM

## O=C(Nc1cccc(-c2cnc3c(NC(=O)c4ccc(Cl)c(Cl)c4)nccn23)c1)c1ccc(Cl)c(C(F)(F)F)c1
  IC50: 660 nM

## Cc1cc(C)cc(C(=O)Nc2nccn3c(-c4cccc(NC(=O)c5ccc(F)c(Cl)c5)c4)cnc23)c1
  IC50: 1640 nM

## Nc1nccn2c(-c3cccc(NC(=O)Nc4ccccc4)c3)cnc12
  IC50: 1140 nM

## O=C(Nc1cccc(-c2cnc3c(NC(=O)c4ccc(OC(F)(F)F)cc4)nccn23)c1)Nc1ccc(F)cc1F
  IC50: 3790 nM

## O=C(Nc1cccc(-c2cnc3c(NC(=O)c4ccccc4)cccn23)c1)c1cccc(C(F)(F)F)c1
  IC50: > 30000 nM

## Cc1cc(C)cc(C(=O)Nc2cccc(-c3cnc4c(NC(=O)c5ccccc5)cccn34)c2)c1
  IC50: > 30000 nM

## Cc1ccc(C(=O)Nc2nccn3c(-c4cccc(NC(=O)c5ccc(Cl)c(C(F)(F)F)c5)c4)cnc23)cc1Cl
  IC50: 2790 nM

## Cc1cc(C)cc(C(=O)Nc2nccn3c(-c4cccc(NC(=O)c5ccc(Cl)c(C(F)(F)F)c5)c4)cnc23)c1
  IC50: 180 nM

## Cc1ccc(C(=O)Nc2nccn3c(-c4cccc(NC(=O)Nc5ccc(Cl)c(C(F)(F)F)c5)c4)cnc23)cc1Cl
  IC50: 1160 nM

## Nc1nccn2c(-c3cccc(NC(=O)c4ccc(C(F)(F)F)cc4)c3)cnc12
  IC50: 7040 nM

## O=C(Nc1cccc(-c2cnc3c(NC(=O)c4ccc(F)c(C(F)(F)F)c4)nccn23)c1)c1ccc(Cl)c(C(F)(F)F)c1
  IC50: 460 nM

## O=C(Nc1cccc(-c2cnc3c(NC(=O)c4ccccc4)cccn23)c1)Nc1cc(C(F)(F)F)cc(C(F)(F)F)c1
  IC50: 2080 nM

## Nc1nccn2c(-c3cccc(NC(=O)c4ccc(Cl)c(C(F)(F)F)c4)c3)cnc12
  IC50: 1410 nM

## Cc1ccc(C(=O)Nc2cccc(-c3cnc4c(N)nccn34)c2)cc1Cl
  IC50: 2270 nM

## O=C(Nc1cccc(-c2cnc3c(NC(=O)c4ccccc4)nccn23)c1)c1ccc(F)c(Cl)c1
  IC50: 1160 nM

## O=C(Nc1cccc(-c2cnc3c(NC(=O)c4cccc(C(F)(F)F)c4)nccn23)c1)c1ccc(F)c(Cl)c1
  IC50: 1080 nM

## O=C(Nc1cccc(-c2cnc3c(NC(=O)c4ccc(Br)cc4)nccn23)c1)Nc1ccc(F)cc1F
  IC50: 3750 nM

## Nc1nccn2c(-c3cccc(NC(=O)Nc4ccc(Br)cc4)c3)cnc12
  IC50: 4640 nM

## Nc1nccn2c(-c3cccc(NC(=O)Nc4ccc(Cl)c(C(F)(F)F)c4)c3)cnc12
  IC50: 11200 nM

## Nc1nccn2c(-c3cccc(NC(=O)c4cc(C(F)(F)F)cc(C(F)(F)F)c4)c3)cnc12
  IC50: 8320 nM

## O=C(Nc1cccc(-c2cnc3c(NC(=O)c4cc(F)cc(F)c4)nccn23)c1)Nc1ccc(F)cc1F
  IC50: 5820 nM

## Cc1cc(C)cc(C(=O)Nc2nccn3c(-c4cccc(NC(=O)Nc5ccc(F)cc5F)c4)cnc23)c1
  IC50: 120 nM

## O=C(Nc1cccc(-c2cnc3c(NC(=O)c4ccc(C(F)(F)F)cc4)nccn23)c1)c1ccc(Cl)c(C(F)(F)F)c1
  IC50: 1600 nM

## O=C(Nc1cccc(-c2cnc3c(NC(=O)c4cc(Cl)c(F)c(Cl)c4)nccn23)c1)Nc1ccc(F)cc1F
  IC50: 390 nM

## O=C(Nc1cccc(-c2cnc3c(NC(=O)c4ccc(F)c(Cl)c4)nccn23)c1)c1ccc(F)c(Cl)c1
  IC50: 890 nM

## O=C(Nc1cccc(-c2cnc3c(NC(=O)c4cccc(OC(F)(F)F)c4)nccn23)c1)c1ccc(Cl)c(C(F)(F)F)c1
  IC50: 1030 nM

## O=C(Nc1cccc(-c2cnc3c(NC(=O)c4cc(C(F)(F)F)cc(C(F)(F)F)c4)nccn23)c1)c1ccc(F)c(Cl)c1
  IC50: 1160 nM

## O=C(Nc1cccc(-c2cnc3c(NC(=O)c4cc(F)cc(F)c4)nccn23)c1)c1ccc(F)c(Cl)c1
  IC50: 450 nM

## O=C(Nc1cccc(Cl)c1)Nc1cccc(-c2cnc3c(NC(=O)c4ccccc4)cccn23)c1
  IC50: 7360 nM

## O=C(Nc1cccc(-c2cnc3c(NC(=O)c4ccc(F)c(Cl)c4)nccn23)c1)Nc1ccc(F)cc1F
  IC50: 1550 nM

## Nc1nccn2c(-c3cccc(NC(=O)Nc4cccc(Cl)c4Cl)c3)cnc12
  IC50: 1270 nM

## O=C(Nc1cccc(-c2cnc3c(NC(=O)c4cccc(OC(F)(F)F)c4)nccn23)c1)c1ccc(F)c(Cl)c1
  IC50: 1500 nM

## O=C(Nc1cccc(-c2cnc3c(NC(=O)c4ccccc4)cccn23)c1)c1ccc(C(F)(F)F)cc1
  IC50: 1700 nM

## O=C(Nc1cccc(-c2cnc3c(NC(=O)c4ccc(OC(F)(F)F)cc4)nccn23)c1)c1ccc(F)c(Cl)c1
  IC50: 440 nM

## O=C(Nc1cccc(-c2cnc3c(NC(=O)c4cc(Cl)c(F)c(Cl)c4)nccn23)c1)c1ccc(Cl)c(C(F)(F)F)c1
  IC50: > 30000 nM

## Nc1nccn2c(-c3cccc(NC(=O)c4cc(Cl)c(F)c(Cl)c4)c3)cnc12
  IC50: 4090 nM

## O=C(Nc1cccc(-c2cnc3c(NC(=O)c4ccc(C(F)(F)F)cc4)nccn23)c1)Nc1ccc(F)cc1F
  IC50: 2730 nM

## O=C(Nc1cccc(-c2cnc3c(NC(=O)c4ccccc4)nccn23)c1)c1ccc(Cl)c(C(F)(F)F)c1
  IC50: 1820 nM

## O=C(Nc1cccc(-c2cnc3c(NC(=O)c4ccc(C(F)(F)F)cc4)nccn23)c1)Nc1ccc(Cl)c(C(F)(F)F)c1
  IC50: 1750 nM

## Nc1nccn2c(-c3cccc(NC(=O)c4ccc(Br)cc4)c3)cnc12
  IC50: 750 nM

## Nc1nccn2c(-c3cccc(NC(=O)c4ccc(F)c(C(F)(F)F)c4)c3)cnc12
  IC50: 2130 nM

## Cc1cc(C)cc(C(=O)Nc2cccc(-c3cnc4c(N)nccn34)c2)c1
  IC50: 820 nM

## Nc1nccn2c(-c3cccc(NC(=O)c4ccc(F)c(Cl)c4)c3)cnc12
  IC50: 340 nM

## O=C(Nc1cccc(-c2cnc3c(NC(=O)c4ccc(F)c(Cl)c4)nccn23)c1)c1ccc(Cl)c(C(F)(F)F)c1
  IC50: 2860 nM

## Nc1nccn2c(-c3cccc(NC(=O)c4ccc(OC(F)(F)F)cc4)c3)cnc12
  IC50: 430 nM

## O=C(Nc1cccc(-c2cnc3c(NC(=O)c4ccc(Cl)c(Cl)c4)nccn23)c1)Nc1ccc(F)cc1F
  IC50: 1890 nM
